Target: TYK2 (Homo sapiens, UniProt P29597)
Test: TYK2 protein degradation in NOMO-1 cells by immunoblotting
Assay type: cell-based
Set-up: endogenous in cells
Settings: NOMO-1 cells
Protocol: NOMO-1 cells were treated with CPD-155, CPD-157, and CPD-158 at 0.1, 1, 10, 100 and 1000 nM concentrations for 16 hours. […] Data shown that CPD-155, CPD-157, and CPD-158 are very potent at the reduction protein levels of TYK2.
MOLT-4 or NOMO-1 cells were cultured at 37° C. with 5% CO2 in RPMI 1640 Medium supplemented with 10% fetal bovine serum. Cells were authenticated using the short tandem repeat (STR) assays. Mycoplasma test results were negative.
Cultured cells were washed with cold PBS once and lysed in cold RIPA buffer supplemented with protease inhibitors and phosphatase inhibitors (Beyotime Biotechnology). The solutions were then incubated at 4° C. for 30 minutes with gentle agitation to fully lyse cells. Cell lysates were centrifuged at 13,000 rpm for 10 minutes at 4° C. and pellets were discarded. Total protein concentrations in the lysates were determined by BCA assays (Beyotime Biotechnology). Cell lysates were mixed with Laemmli loading buffer to 1× and heated at 99° C. for 5 min. Proteins were resolved on SDS-PAGE and visualized by chemiluminescence. Images were taken by a ChemiDoc MP Imaging system (Bio-Rad). Protein bands were quantitated using the accompanied software provided by Bio-Rad.

Sequence of TYK2 (P29597 whole entry): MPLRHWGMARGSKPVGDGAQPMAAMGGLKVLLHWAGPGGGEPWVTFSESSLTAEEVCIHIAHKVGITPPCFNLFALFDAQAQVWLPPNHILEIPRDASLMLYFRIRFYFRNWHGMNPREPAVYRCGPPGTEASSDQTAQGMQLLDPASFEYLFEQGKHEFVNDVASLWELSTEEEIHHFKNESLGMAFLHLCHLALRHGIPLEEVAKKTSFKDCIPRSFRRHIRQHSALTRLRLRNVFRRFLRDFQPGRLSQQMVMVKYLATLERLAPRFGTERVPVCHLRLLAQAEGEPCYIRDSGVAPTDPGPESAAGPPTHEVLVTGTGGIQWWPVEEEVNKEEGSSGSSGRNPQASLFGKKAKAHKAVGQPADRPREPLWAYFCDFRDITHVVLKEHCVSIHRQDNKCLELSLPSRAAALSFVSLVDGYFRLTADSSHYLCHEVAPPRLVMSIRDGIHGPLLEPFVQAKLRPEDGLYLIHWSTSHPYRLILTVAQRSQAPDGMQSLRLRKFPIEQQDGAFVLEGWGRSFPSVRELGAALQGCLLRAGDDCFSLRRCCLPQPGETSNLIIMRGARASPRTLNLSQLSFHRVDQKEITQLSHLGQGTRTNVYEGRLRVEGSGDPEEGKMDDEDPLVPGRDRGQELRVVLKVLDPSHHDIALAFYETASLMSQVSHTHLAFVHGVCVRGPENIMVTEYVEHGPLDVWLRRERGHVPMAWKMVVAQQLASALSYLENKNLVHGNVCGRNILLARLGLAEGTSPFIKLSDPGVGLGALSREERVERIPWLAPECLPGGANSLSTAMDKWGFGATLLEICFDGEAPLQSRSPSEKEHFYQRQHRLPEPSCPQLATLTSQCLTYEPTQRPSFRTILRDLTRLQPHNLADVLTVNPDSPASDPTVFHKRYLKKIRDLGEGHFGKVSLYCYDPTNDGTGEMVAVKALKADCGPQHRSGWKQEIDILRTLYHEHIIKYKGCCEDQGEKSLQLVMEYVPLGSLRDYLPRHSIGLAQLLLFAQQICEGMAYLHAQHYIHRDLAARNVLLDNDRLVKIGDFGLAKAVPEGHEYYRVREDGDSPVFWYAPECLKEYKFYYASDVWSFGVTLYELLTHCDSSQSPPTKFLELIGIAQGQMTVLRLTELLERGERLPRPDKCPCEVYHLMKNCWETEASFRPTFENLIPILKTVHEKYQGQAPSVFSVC

| SMILES | TYK2 Degradation (NOMO-1, 10 nM) | TYK2 Degradation (NOMO-1, 100 nM) |
| --- | --- | --- |
| CNC(=O)c1nnc(Nc2ccc(C(=O)NCCNc3ccc4c(c3)C(=O)N(C3CCC(=O)NC3=O)C4=O)cn2)cc1Nc1cccc(-c2ncn(C)n2)c1OC (stereo not shown) [CDD-176, 6-((5-((2-((2-(2,6-dioxopiperidin-3-yl)-1,3-dioxoisoindolin-5-yl)amino)ethyl)carbamoyl)pyridin-2-yl)amino)-4-((2-methoxy-3-(1-methyl-1H-1,2,4-triazol-3-yl)phenyl)amino)-N-methylpyridazine-3-carboxamide] | C (C: ≤20% TYK2 degradation) | C (C: ≤20% TYK2 degradation) |
| CNC(=O)c1nnc(Nc2ccc(N3CCN(C(=O)CCCCCCC(=O)N[C@H](C(=O)N4C[C@H](O)C[C@H]4C(=O)N[C@@H](C)c4ccc(-c5scnc5C)cc4)C(C)(C)C)CC3)cn2)cc1Nc1cccc(-c2ncn(C)n2)c1OC [CDP-112, 6-((5-(4-(8-(((S)-1-((2S,4R)-4-Hydroxy-2-(((S)-1-(4-(4-methylthiazol-5-yl)phenyl)ethyl)carbamoyl)pyrrolidin-1-yl)-3,3-dimethyl-1-oxobutan-2-yl)amino)-8-oxooctanoyl)piperazin-1-yl)pyridin-2-yl)amino)-4-((2-methoxy-3-(1-methyl-1H-1,2,4-triazol-3-yl)phenyl)amino)-N-methylpyridazine-3-carboxamide] | A (A: ≥60% TYK2 degradation) | A (A: ≥60% TYK2 degradation) |
| CNC(=O)c1nnc(Nc2ccc(N3CCN(CCCCCCCC(=O)N[C@H](C(=O)N4C[C@H](O)C[C@H]4C(=O)N[C@@H](C)c4ccc(-c5scnc5C)cc4)C(C)(C)C)CC3)cn2)cc1Nc1cccc(-c2ncn(C)n2)c1OC [CPD-113, 6-((5-(4-(8-(((S)-1-((2S,4R)-4-Hydroxy-2-(((S)-1-(4-(4-methylthiazol-5-yl)phenyl)ethyl)carbamoyl)pyrrolidin-1-yl)-3,3-dimethyl-1-oxobutan-2-yl)amino)-8-oxooctyl)piperazin-1-yl)pyridin-2-yl)amino)-4-((2-methoxy-3-(1-methyl-1H-1,2,4-triazol-3-yl)phenyl)amino)-N-methylpyridazine-3-carboxamide] | B (B: <60% TYK2 degradation, and >20% TYK2 degradation) | A (A: ≥60% TYK2 degradation) |
| CNC(=O)c1nnc(Nc2ccc(N3CCN(C(=O)CCCCCCCCC(=O)N[C@H](C(=O)N4C[C@H](O)C[C@H]4C(=O)N[C@@H](C)c4ccc(-c5scnc5C)cc4)C(C)(C)C)CC3)cn2)cc1Nc1cccc(-c2ncn(C)n2)c1OC [CPD-114, 6-((5-(4-(10-(((S)-1-((2S,4R)-4-hydroxy-2-(((S)-1-(4-(4-methylthiazol-5-yl)phenyl)ethyl)carbamoyl)pyrrolidin-1-yl)-3,3-dimethyl-1-oxobutan-2-yl)amino)-10-oxodecanoyl)piperazin-1-yl)pyridin-2-yl)amino)-4-((2-methoxy-3-(1-methyl-1H-1,2,4-triazol-3-yl)phenyl)amino)-N-methylpyridazine-3-carboxamide] | A (A: ≥60% TYK2 degradation) | A (A: ≥60% TYK2 degradation) |
| CNC(=O)c1nnc(Nc2ccc(N3CCN(C(=O)CCCCCCCC(=O)N[C@H](C(=O)N4C[C@H](O)C[C@H]4C(=O)N[C@@H](C)c4ccc(-c5scnc5C)cc4)C(C)(C)C)CC3)cn2)cc1Nc1cccc(-c2ncn(C)n2)c1OC [CPD-115, 6-((5-(4-(9-(((S)-1-((2S,4R)-4-hydroxy-2-(((S)-1-(4-(4-methylthiazol-5-yl)phenyl)ethyl)carbamoyl)pyrrolidin-1-yl)-3,3-dimethyl-1-oxobutan-2-yl)amino)-9-oxononanoyl)piperazin-1-yl)pyridin-2-yl)amino)-4-((2-methoxy-3-(1-methyl-1H-1,2,4-triazol-3-yl)phenyl)amino)-N-methylpyridazine-3-carboxamide] | A (A: ≥60% TYK2 degradation) | A (A: ≥60% TYK2 degradation) |

Source: patent publication US20240059671A1, “TYROSINE KINASE 2 (TYK2) DEGRADATION COMPOUNDS AND METHODS OF USE” (CULLGEN (SHANGHAI), INC., priority 2020, published 2024)
